The values below come from ChEMBL document CHEMBL1151301, “Isolation of translactone-containing triterpenes with thrombin inhibitory activities from the leaves of Lantana camara” (J Nat Prod, 1998).

SMILES strings stand for the structures.

The target in the test is Prothrombin (Homo sapiens, UniProt P00734). The experiment in a line: Inhibition of human thrombin by fibrinogen-clot assay.

By IC50 is commonly meant the concentration that inhibits the measured activity by half. For `CC(=O)OC[C@]12C[C@@H]3OC(=O)[C@H](CC(=O)C=C(C)C)[C@H]3[C@]1(C)[C@@H](O)C[C@H]1C2=CC[C@@H]2[C@]1(C)CC[C@@H](OC(C)=O)[C@@]2(C)C(=O)O[C@@H]1O[C@H](CO)[C@@H](O)[C@H](O)[C@H]1O`, the IC50 was determined as 70 nM. This counts as double-digit nanomolar.
The figure for `CC(C)=CC(=O)C[C@H]1C(=O)O[C@H]2C[C@]3(C)C4=CC[C@@H]5[C@](C)(CC[C@H]6OC(=O)[C@@]56C)[C@H]4CC[C@@]3(C)[C@@H]21` is 50 nM.
The figure for `CC(=O)O[C@@H]1CC[C@@]2(C)[C@@H](CC=C3[C@@H]2C[C@H](O)[C@@]2(C)[C@H]4[C@H](C[C@]32C)OC(=O)[C@@H]4CC(=O)C=C(C)C)[C@]1(C)C(=O)O` is 90 nM; for `CC(=O)O[C@@H]1CC[C@@]2(C)[C@@H](CC=C3[C@@H]2CC[C@@]2(C)[C@H]4[C@H](C[C@]32C)OC(=O)[C@@H]4CC(=O)C=C(C)C)[C@]1(C)C(=O)O` it is 18 nM.
The figure for `CC(=O)O[C@@H]1CC[C@@]2(C)[C@@H](CC=C3[C@@H]2C[C@H](O)[C@@]2(C)[C@H]4[C@H](C[C@]32CO)OC(=O)[C@@H]4CC(=O)C=C(C)C)[C@]1(C)C(=O)O[C@@H]1O[C@H](CO)[C@@H](O)[C@H](O)[C@H]1O` is 130 nM.
